PubChem BioAssay AID1963421 (Molecular Pharmacology Branch, DTP, NCI, 2024)
Where “and” joins values, the source holds several entries; their conditions need not be identical. Equal values may be shown once. Values belong to the compound of their own block, whether it stands above or below them.

Tested on: 519858-162-T-J1-PDC complex spheroid growth, % test/control
Experiment: Anticancer human tumor 519858-162-T-J1-PDC patient-derived colon adenocarcinoma cell line growth inhibition [Asc]
Settings: for viability, T/C: stronger effect = lower value
Method: Multicellular complex tumor spheroid response to apoptosis pathway targeting inhibitors Alrizomadlin, Pelcitoclax, and Dasminapant in combination with a variety of drugs and investigational agents in selected tumor cell lines
The MDM2 inhibitor alrizomadlin, the Bcl-2/Bcl-xL inhibitor pelcitoclax, and the IAPs inhibitor dasminapant were evaluated both individually and in combination with standard of care and investigational anticancer small molecules within a complex spheroid model of solid tumors. . Complex spheroids include a stromal component modeled by human endothelial cells (HUVEC) and fibroblasts modeled by human mesenchymal stem cells (MSCs). The concentration ranges selected for each drug and investigational agent were based upon clinically achievable concentrations if the clinical Cmax of the agent was known.
Compounds. The drugs and investigational agents: alrizomadlin (APG-115; NSC831270), pelcitoclax (APG-1252; NSC835773), dasminapant (APG-1387;NSC834197), TAK-243 (NSC785004), copanlisib (NSC809693), olaparib (NSC753686), talazoparib (NSC767125), cobimetinib (NSC 768068), eltanexor (KPT-8602, NSC 794443), abemaciclib (NSC 768073), sotorasib (NSC818433), adagrasib (NSC 831453), MRTX-1133 (NSC 836407), Iadademestat (ORY1001, NSC 806812), and RMC-4630 (NSC839698), were obtained from the NCI Developmental Therapeutics Program Chemical Repository. The FDA-approved anticancer drug set is available from the Developmental Therapeutics Program at https://dtp.cancer.gov/organization/dscb/obtaining/available plates.htm. […] The stock solutions were prepared in dimethyl sulfoxide (DMSO, Sigma-Aldrich, St. Louis, MO, cat. D2650) at 800-fold the tested concentration and stored at -70 degrees C prior to their use. All drugs and investigational agents were tested over a range starting from a high concentration at or near the clinical Cmax and decreasing in half-log increments. If the clinical Cmax for an agent had not been determined, the highest concentration tested was 10 microM.
The patient-derived cancer (PDC) cell lines include five colon adenocarcinomas: 186277-243-T-J2-PDC, 616215-338-R-J1-PDC, 439559-082-T-J2-PDC, 463943-066-T-J2-PDC, and 519858-162-T-J1-PDC; three pancreatic carcinomas: 323965-272-R-J2-PDC, 521955-158-R6-J3-PDC, and 521955-158-R2-J5-PDC; two uterine sarcomas: 327498-152-R-J2-PDC and 993429-296-R-J1-PDC; two rhabdomyosarcomas: 755483-174-R-J1-PDC and 772245-204-R-J1-PDC; two soft tissue sarcomas: 126254-015-R-J1-PDC and 494315-158-R-J1-PDC; two malignant fibrous histiocytomas: 317291-083-R-J1-PDC and 596521-263-R-J1-PDC; two breast carcinomas: 171881-019-R-J1-PDC and 885512-296-R-J2-PDC; and one ovarian carcinoma: 6556581-035-R-J-PDC were obtained from the NCI PDMR, (https://pdmr.cancer.gov). The established cell lines HSSY-2 synovial sarcoma (RRID:CVCL 8719), SYO-1 synovial sarcoma (RRID:CVCL_7146), MPNST malignant peripheral neural sheath tumor were obtained from the Sloan Kettering Institute. The following established cell lines were purchased from the American Type Culture Collection (ATCC, Manassas, VA), Sor the received from the NCI repository:, PANC-1 pancreatic carcinoma (CRL-1469, RRID:CVCL_0480), OVCAR-5 ovarian carcinoma (RRID:CVCL_1628), OVCAR-8 ovarian carcinoma (RRID:CVCL_1629), , MCF-7 breast carcinoma (CRL-12584, RRID:CVCL_0031), MDA-MB-231 breast carcinoma (CRL-12532, RRID:CVCL_0062), NCI-H1876 small cell lung carcinoma (CRL-5902, RRID:CVCL_1503), NCI-H510A small cell lung carcinoma (HTB-184, RRID:CVCL_1565), NCI-H1417 (CRL-5869, RRID:CVCL_1469), and NCI-H196 small cell lung carcinoma (CRL-5823, RRID:CVCL_1509). Dr. Peter Houghton (Greehey Children's Cancer Research Institute, University of Texas Health Science Center, San Antonio, TX) provided Rh-18 rhabdomyosarcoma (RRID:CVCL_1659). Pooled donor human umbilical vein endothelial cells (HUVEC, Lonza, cat. CC-2519) and human mesenchymal stem cells (hMSC, Lonza, cat. PT-2501) were purchased from Lonza (Walkersville, MD).
Cell Culture. […]
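Further: seven day drug exposure begun three days after spheroid seeding.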
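Wherever viability, T/C is given: 100% = DMSO vehicle wells and lower values mean less viable spheroid.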

- IC50 (curve of first compound, second compound 0.00316 µM): > 300 nM
- IC50 (curve of first compound, second compound 0.01 µM): > 300 nM
- IC50 (curve of first compound, second compound 0.0316 µM): > 300 nM
- IC50 (curve of first compound, second compound 0.1 µM): > 300 nM
- IC50 (curve of first compound, second compound 0.316 µM): > 300 nM
- IC50 (curve of first compound, second compound 1 µM): > 300 nM
SMILES: NC(=O)C(=Cn1cnc(-c2cc(C(F)(F)F)cc(C(F)(F)F)c2)n1)c1cncnc1 + CNC(C)C(=O)NC1CN(S(=O)(=O)c2cccc(S(=O)(=O)N3CCC4CCC(C(=O)NC(c5ccccc5)c5ccccc5)N4C(=O)C(NC(=O)C(C)NC)C3)c2)CCC2CCC(C(=O)NC(c3ccccc3)c3ccccc3)N2C1=O
- viability, T/C (second compound 0.00316 µM, first compound 0.000949 µM): 139%
- viability, T/C (second compound 0.00316 µM, first compound 0.003 µM): 116%
- viability, T/C (second compound 0.00316 µM, first compound 0.00949 µM): 102%
- viability, T/C (second compound 0.00316 µM, first compound 0.03 µM): 83.8%
- viability, T/C (second compound 0.00316 µM, first compound 0.0949 µM): 71.7%
- viability, T/C (second compound 0.00316 µM, first compound 0.3 µM): 71.2%
- viability, T/C (second compound 0.01 µM, first compound 0.000949 µM): 91.2%
- viability, T/C (second compound 0.01 µM, first compound 0.003 µM): 80%
- viability, T/C (second compound 0.01 µM, first compound 0.00949 µM): 67.5%
- viability, T/C (second compound 0.01 µM, first compound 0.03 µM): 70.7%
- viability, T/C (second compound 0.01 µM, first compound 0.0949 µM): 67%
- viability, T/C (second compound 0.01 µM, first compound 0.3 µM): 55.6%
- viability, T/C (second compound 0.0316 µM, first compound 0.000949 µM): 87%
- viability, T/C (second compound 0.0316 µM, first compound 0.003 µM): 85.7%
- viability, T/C (second compound 0.0316 µM, first compound 0.00949 µM): 80.1%
- viability, T/C (second compound 0.0316 µM, first compound 0.03 µM): 54.8%
- viability, T/C (second compound 0.0316 µM, first compound 0.0949 µM): 65%
- viability, T/C (second compound 0.0316 µM, first compound 0.3 µM): 63.5%
- viability, T/C (second compound 0.1 µM, first compound 0.000949 µM): 99.2%
- viability, T/C (second compound 0.1 µM, first compound 0.003 µM): 96.3%
- viability, T/C (second compound 0.1 µM, first compound 0.00949 µM): 98.4%
- viability, T/C (second compound 0.1 µM, first compound 0.03 µM): 67.8%
- viability, T/C (second compound 0.1 µM, first compound 0.0949 µM): 50.1%
- viability, T/C (second compound 0.1 µM, first compound 0.3 µM): 71.2%
- viability, T/C (second compound 0.316 µM, first compound 0.000949 µM): 86.3%
- viability, T/C (second compound 0.316 µM, first compound 0.003 µM): 105%
- viability, T/C (second compound 0.316 µM, first compound 0.00949 µM): 67.1%
- viability, T/C (second compound 0.316 µM, first compound 0.03 µM): 65.7%
- viability, T/C (second compound 0.316 µM, first compound 0.0949 µM): 69.5%
- viability, T/C (second compound 0.316 µM, first compound 0.3 µM): 67.6%
- viability, T/C (second compound 1 µM, first compound 0.000949 µM): 88.4%
- viability, T/C (second compound 1 µM, first compound 0.003 µM): 71.4%
- viability, T/C (second compound 1 µM, first compound 0.00949 µM): 76.5%
- viability, T/C (second compound 1 µM, first compound 0.03 µM): 51.4%
- viability, T/C (second compound 1 µM, first compound 0.0949 µM): 72.3%
- viability, T/C (second compound 1 µM, first compound 0.3 µM): 109%

- IC50 (curve of compound): > 300 nM
SMILES: NC(=O)C(=Cn1cnc(-c2cc(C(F)(F)F)cc(C(F)(F)F)c2)n1)c1cncnc1
- viability, T/C (compound 0.000949 µM): 106% and 86.6% and 101%
- viability, T/C (compound 0.003 µM): 105% and 110% and 63.5%
- viability, T/C (compound 0.00949 µM): 101% and 62.7% and 81.4%
- viability, T/C (compound 0.03 µM): 87.2% and 69% and 97.2%
- viability, T/C (compound 0.0949 µM): 89.4% and 72.2% and 65.5%
- viability, T/C (compound 0.3 µM): 72.1% and 90.1% and 82.9%
